Reference: patent EP1021178B1, “SELENOPHENE ANTI-TUMOR AGENTS” (Purdue Research Foundation, priority 1996, dated 1997)

Experiments:
Assay in all cases: NCI human tumor cell panel
Type in all cases: cell-based
[1] = system: IGROV1; conditions: IGROV-1, read-out: Log10 LC50 (converted)
From the text: (§1) Considering the diversity of tumors in terms of cell type, morphology, growth rate and other cellular characteristics, the U.S. National Cancer Institute (NCI) has developed a "disease-oriented" approach to antitumor activity screening (M.R. Boyd, in "Principle of Practice of Oncology" J.T. Devita, S. Hellman, S.A. Rosenberg (Eds.) Vol. 3, PPO Update, No. 10, 1989). This in vitro prescreening system is based on the measurement of antitumor cytotoxicity against human tumor cell line panels consisting of approximately 60 cell lines of major human tumors (including leukemia and slower growing tumor cells such as lung, colon, breast, skin, kidney, etc.). The most important advantage of the new in vitro screening panels is the opportunity to identify compounds that are selectively more cytotoxic to cells of slowly growing solid tumors than to rapidly growing leukemia cells.
(§2) The cytotoxic activity of the present selenophene compounds have been measured utilizing two different assays or screens. The first screen measures the cytotoxicity against a panel of sixty different human tumor cell lines. This assay provides data regarding the general cytotoxicity of an individual compound. In particular this type of assay is useful in identifying compounds which have enhanced cytotoxic activity against slow growing tumors as compared to faster growing tumor cells such as leukemia tumor cell lines. The identification of such compounds is critical since previously identified antitumor agents have low cytotoxic activity against slower growing tumors. […] The specificity of a cytotoxic compound for tumor cell lines relative to normal cells is an important characteristic of an effective antitumor agent.
(§3) Antitumor cytotoxicity data generated from the National Cancer Institute human tumor cell panels can also be expressed in a graphic pattern (mean graph) to display differential cell growth inhibition (K.D. Paull, R.H. Shoemaker, L. Hodes, A. Monks, D.A. Scudiero, L. Rubinstein, J. Plowman and M.R. Boyd, J. Nail. Cancer Inst., 81, 1088, 1989.) In the mean graph, the arithmetic mean of the logarithm of the GI50 (50% growth inhibition), TGI (total growth inhibition) or LC50 (50% lethal concentration) values is used as an anchor point. […] The length of a bar is indicative of differential cytotoxicity against a specific type of tumor cells or tumor panels.
(§4) The antitumor cytotoxicity of the selenophene compounds tested in those in vitro assays was measured by a microculture assay using either a 3-(4,5-dimethylthiazol-2-yl)-2,5-diphenyltetrazolium bromide (MTT) or sulforhodamine B (SRB) based assay. [M.R. Boyd in "Principles and Practices of Oncology," V.T. DeVita, Jr.]. The experiments were conducted at Purdue University in 96-well microtiter plates and the cytotoxic effects of the selenophene compounds on those cells were measured by cell count using a Coulter Z.F. counter (Hialeah, FL). The results are expressed as GI50, the concentration of drug at which cell numbers are reduced to 50% of control cell culture [T.C.K. Chan, C.J. Chang, N.M. Koonchanok and R.L. Geahlen, Biochem. Biophys. Res. Commun., 193, 1152, (1993); S. Hellman and S.A. Rosenberg (Eds.), Vol. 3, PPO Updates, Number 10, (1989).]
(§5) This in vitro microculture assay has an advantage over in vivo assays in that results are obtained within a week as opposed to several months. The MTT assay is based on the production of a dark blue formazan product by dehydrogenase in the mitochondria of live tumor cells after exposure to drug for 6 days [M.C. Alley, D.A. Scudiero, A. Monks, M.L. Hursey, M.J. Czerwinski, D.L. Fine, B.J. Abbott, J.G. Mayo, R.H. Shoemaker and M.R. Boyd, Cancer Res., 48, 589, 1988]. Thus, only live cells are stained and can be measured at 570 nm. […]

[2] = system: SN12C; conditions: read-out: Log10 LC50 (converted)
From the text: as §1, §2, §3, §4, §5

[3] = system: UACC-62; conditions: UACC-62, read-out: Log10 LC50 (converted)
From the text: as §1, §2, §3, §4, §5

[4] = system: SW-620; conditions: SW-620, read-out: Log10 LC50 (converted)
From the text: as §1, §2, §3, §4, §5

[5] = system: LOX IMVI; conditions: read-out: Log10 LC50 (converted)
From the text: as §1, §2, §3, §4, §5

[6] = system: NCI-H522; conditions: NCI-H522, read-out: Log10 LC50 (converted)
From the text: as §1, §2, §3, §4, §5

[7] = system: OVCAR-5; conditions: OVCAR-5, read-out: Log10 LC50 (converted)
From the text: as §1, §2, §3, §4, §5

[8] = system: OVCAR-4; conditions: OVCAR-4, read-out: Log10 LC50 (converted)
From the text: as §1, §2, §3, §4, §5

[9] = system: SK-MEL-2; conditions: SK-MEL-2, read-out: Log10 LC50 (converted)
From the text: as §1, §2, §3, §4, §5

[10] = system: MCF7; conditions: MCF7, read-out: Log10 LC50 (converted)
From the text: as §1, §2, §3, §4, §5

[11] = system: MCF7/ADR-RES; conditions: MCF7, read-out: Log10 LC50 (converted)
From the text: as §1, §2, §3, §4, §5

[12] = system: K-562; conditions: K562, read-out: Log10 LC50 (converted)
From the text: as §1, §2, §3, §4, §5

[13] = system: MOLT-4; conditions: MOLT-4, read-out: Log10 LC50 (converted)
From the text: as §1, §2, §3, §4, §5

[14] = system: 786-0; conditions: 786-0, read-out: Log10 LC50 (converted)
From the text: as §1, §2, §3, §4, §5

[15] = system: U251; conditions: U-251, read-out: Log10 LC50 (converted)
From the text: as §1, §2, §3, §4, §5

[16] = system: HCT-116; conditions: HCT-116, read-out: Log10 LC50 (converted)
From the text: as §1, §2, §3, §4, §5

[17] = system: HS 578T; conditions: read-out: Log10 LC50 (converted)
From the text: as §1, §2, §3, §4, §5

[18] = system: SF-539; conditions: SF-539, read-out: Log10 LC50 (converted)
From the text: as §1, §2, §3, §4, §5

[19] = system: DU-145; conditions: DU-145, read-out: Log10 LC50 (converted)
From the text: as §1, §2, §3, §4, §5

[20] = system: RPMI-8226; conditions: RPMI-8226, read-out: Log10 LC50 (converted)
From the text: as §1, §2, §3, §4, §5

[21] = system: PC-3; conditions: PC-3, read-out: Log10 LC50 (converted)
From the text: as §1, §2, §3, §4, §5

| Compound | CC50 [1] [µM] | CC50 [2] [µM] | CC50 [3] [µM] | CC50 [4] [µM] | CC50 [5] [µM] | CC50 [6] [µM] | CC50 [7] [µM] | CC50 [8] [µM] | CC50 [9] [µM] | CC50 [10] [µM] | CC50 [11] [µM] | LC50 [12] [µM] | CC50 [13] [µM] | CC50 [14] [µM] | CC50 [15] [µM] | CC50 [16] [µM] | CC50 [18] [µM] | CC50 [19] [µM] | CC50 [20] [µM] | CC50 [21] [µM] | other results |
| --- | --- | --- | --- | --- | --- | --- | --- | --- | --- | --- | --- | --- | --- | --- | --- | --- | --- | --- | --- | --- | --- |
| O=Cc1ccc(-c2ccc(-c3ccc(C=O)[se]3)s2)s1 | 91.2 | > 100 | > 100 | > 100 | > 100 | > 100 | > 100 | > 100 | > 100 | > 100 | > 100 | > 100 | > 100 | 64.6 | > 100 | > 100 | > 100 | > 100 | > 100 | > 100 | CC50 [17]: > 100 µM |
| OCc1ccc(-c2ccc(-c3ccc(CO)[se]3)s2)s1 | 28.2 | > 100 | > 100 | > 100 | 56.2 | > 100 | > 100 | 81.3 | > 100 | > 100 | > 100 | 97.7 | > 100 | 57.5 | 72.4 | 81.3 | 83.2 | > 100 | > 100 | > 100 | CC50 [17]: > 100 µM |
| OCc1ccc(-c2ccc(-c3ccc[se]3)s2)[se]1 | 51.3 | > 100 | > 100 | > 100 | 85.1 | 55 |  | > 100 | > 100 | > 100 | 97.7 | > 100 | > 100 | > 100 | 44.7 | > 100 | > 100 | > 100 | > 100 | > 100 | CC50 [17]: > 100 µM |
| OCc1ccc(-c2ccc(-c3ccc[se]3)[se]2)[se]1 | 12.3 |  | 67.6 | 35.5 | 37.2 | 23.4 | > 100 | 47.9 | 69.2 | 29.5 | > 100 | > 100 | > 100 | 17.4 | 55 | 32.4 | 51.3 | 46.8 | > 100 | 36.3 |  |
| OCc1ccc(-c2ccc(-c3ccc(CO)[se]3)[se]2)[se]1 | 30.2 | > 100 | 44.7 | 9.55 | > 100 | 7.08 | > 100 | 49 | 69.2 | 47.9 | > 100 | 70.8 | > 100 | 70.8 | 50.1 | > 100 | 95.5 | 46.8 | > 100 | 35.5 | CC50 [17]: 46.8 µM |
| OCc1ccc(-c2ccc(-c3ccc(CO)s3)[se]2)s1 |  | > 100 | > 100 | > 100 | > 100 | > 100 | > 100 | > 100 | > 100 | > 100 | > 100 | > 100 | > 100 | > 100 | > 100 | > 100 | > 100 | > 100 | > 100 | > 100 | CC50 [17]: > 100 µM |
| OCc1ccc(-c2ccc(-c3ccc(CO)[se]3)s2)[se]1 | > 100 | > 100 | > 100 | > 100 | > 100 |  | 0.776 | > 100 | > 100 | > 100 | > 100 | > 100 | > 100 | > 100 | 46.8 | > 100 | > 100 | > 100 | > 100 | > 100 | CC50 [17]: > 100 µM |
| OCc1ccc(-c2ccc(-c3cccs3)[se]2)s1 | 16.2 | > 100 | > 100 | > 100 | > 100 | > 100 | > 100 | > 100 | > 100 | > 100 | > 100 | > 100 | > 100 | > 100 | > 100 | 2.95 | > 100 | > 100 | > 100 | > 100 | CC50 [17]: > 100 µM |
| O=Cc1ccc(-c2ccc(-c3ccc(C=O)[se]3)s2)[se]1 | > 100 | > 100 | > 100 | > 100 | > 100 | > 100 | 3.55 | > 100 | > 100 | > 100 | > 100 | > 100 | > 100 | > 100 | > 100 | > 100 | > 100 | > 100 | > 100 | > 100 | CC50 [17]: > 100 µM |
| O=Cc1ccc(-c2ccc(-c3ccc[se]3)[se]2)[se]1 | 39.8 | 50.1 | 66.1 |  | 77.6 | 42.7 | 75.9 | 60.3 | > 100 | 43.7 |  | > 100 | > 100 | 43.7 | 47.9 | 38.9 | 63.1 | 51.3 | > 100 | 87.1 | CC50 [17]: 53.7 µM |
